Laboratory results published in patent US11945811B2, “Potassium channel inhibitors” (ACESION PHARMA APS, priority 2021, dated 2024).

molecular target: T1, human SK3 channel (hKCa2.3) (Homo sapiens, UniProt Q9UGI6); assay: Automated patch clamping (QPatch 16 HT whole-cell recordings); type: cell-based; settings: HEK-293 cells stably expressing hKCa2.3; currents measured at −80 mV; normalized to N-methyl bicuculline; read-out: IC50 in the Automated patch clamping assay (SK3 channel inhibition)
T1 construct: expressed in transfected cells
Protocol: Automated whole cell patch-clamp recordings were performed using a QPatch 16 HT system and single-hole Qplates (Sophion, Denmark) on HEK-293 cells stably expressing the human SK3 channel (hKCa2.3). Cells were cultured and prepared for experiments using normal cell culturing procedures. A total of 4-5 million cells were used per experiment. The Qpatch automatically generates giga sealing, whole-cell formation, compound application and recording of current. hKCa2.3 currents were recorded in symmetrical K^+ solutions. The intracellular/pipette solution contained 154 mM KCl, 10 mM HEPES and 10 mM EGTA. CaCl2 is added to give calculated free concentrations of Ca^2+ of 0.4 μM and MgCl2 is added to give a free concentration of 1 mM. In order to maintain a total [K^+] of 156 mM (corresponding to the concentration in the extracellular ringer) a fixed amount of KOH (15 mM) is added, thereafter pH is adjusted with HCl to pH=7.2. Expected osmolarity: 275 mOsm. Sucrose was added to a final osmolarity around 295 mosm. The extracellular solution consisted of (in mM): CaCl2 0.1, MgCl2 3, KCl 150, HEPES 10 and glucose 10, pH=7.4 adjusted with KOH. Osmolarity between 285-295 mosm. The cells were held at 0 mV and hKCa2.3 currents were elicited by a linear voltage ramp from −80 mV to +80 mV (200 ms in duration) applied every 5th second.
The compound application protocol consisted of 12 recording periods lasting 200 s: 1) Baseline recordings in extracellular solution; 2) Application of the positive control N-methyl bicuculline (100 μM), which is characterized by full efficacy, fast on- and off-rate; 3-4) Wash-out; 5-10) Increasing concentrations of test compound to establish an IC50 value; 11-12) Wash-out; 13) positive control with compound NS8593 (N-[(1R)-1,2,3,4-tetrahydro-1-naphthalenyl]-1H-benzimidazol-2-amine) (1 μM) or with N-methyl bicuculline (100 μM). Data were sampled at 10 kHz, 4th order Bessel filter, cut-off frequency 3 kHz. Currents were compensated for run-down. Potency was quantified as the concentration needed to inhibit half of the SK channel activity and reported as an IC50 value.
All effects of compounds of the present invention as tested were normalized to the observed inhibitory effect of N-methyl bicuculline. Currents were measured at −80 mV.

SMILES | IC50
CC(CO)(Nc1nc2c(Cn3ccoc3=N)cccc2[nH]1)c1ccc(F)c(Cl)c1 (centres unmarked) [Example 8, 2-(3-chloro-4-fluorophenyl)-2-({4-[(2-imino-2,3-dihydro-1,3-oxazol-3-yl)methyl]-1H-1,3-benzodiazol-2-yl}amino)propan-1-ol] | < 1000 nM
CC(CO)(Nc1nc2c(CNc3ccon3)cccc2[nH]1)c1ccc(F)c(Cl)c1 (centres unmarked) [Example 9, 2-(3-chloro-4-fluorophenyl)-2-[(4-{[(1,2-oxazol-3-yl)amino]methyl}-1H-1,3-benzodiazol-2-yl)amino]propan-1-ol] | < 1000 nM
COCC(C)(Nc1nc2c(Cn3c(C)coc3=N)cccc2[nH]1)c1cccc(Cl)c1 (centres unmarked) [Example 10, N-[2-(3-chlorophenyl)-1-methoxypropan-2-yl]-4-[(2-imino-4-methyl-2,3-dihydro-1,3-oxazol-3-yl)methyl]-1H-1,3-benzodiazol-2-amine] | < 30000 nM
CC(CO)(Nc1nc2c(CNc3ccncn3)cccc2[nH]1)c1ccc(F)c(Cl)c1 (centres unmarked) [Example 11, 2-(3-chloro-4-fluorophenyl)-2-[(4-{[(pyrimidin-4-yl)amino]methyl}-1H-1,3-benzodiazol-2-yl)amino]propan-1-ol] | < 30000 nM
Cc1cc(NCc2cccc3[nH]c(NC(C)(CO)c4ccc(F)c(Cl)c4)nc23)no1 (centres unmarked) [Example 12, 2-(3-chloro-4-fluorophenyl)-2-[(4-{[(5-methyl-1,2-oxazol-3-yl)amino]methyl}-1H-1,3-benzodiazol-2-yl)amino]propan-1-ol] | < 1000 nM
Cc1coc(=N)n1Cc1cccc2[nH]c(NC(C)(CO)c3ccc(F)c(Cl)c3)nc12 (centres unmarked) [Example 13, 2-(3-chloro-4-fluorophenyl)-2-({4-[(2-imino-4-methyl-2,3-dihydro-1,3-oxazol-3-yl)methyl]-1H-1,3-benzodiazol-2-yl}amino)propan-1-ol] | < 1000 nM
COCC(C)(Nc1nc2c(Cn3ccoc3=N)cccc2[nH]1)c1ccc(F)c(Cl)c1 (centres unmarked) [Example 14, N-[2-(3-chloro-4-fluorophenyl)-1-methoxypropan-2-yl]-4-[(2-imino-2,3-dihydro-1,3-oxazol-3-yl)methyl]-1H-1,3-benzodiazol-2-amine] | < 30000 nM
Cc1nc(NCc2cccc3[nH]c(NC(C)(CO)c4ccc(F)c(Cl)c4)nc23)no1 (centres unmarked) [Example 15, 2-(3-chloro-4-fluorophenyl)-2-[(4-{[(5-methyl-1,2,4-oxadiazol-3-yl)amino]methyl}-1H-1,3-benzodiazol-2-yl)amino]propan-1-ol] | < 30000 nM
Cc1nnc(NCc2cccc3[nH]c(NC(C)(CO)c4ccc(F)c(Cl)c4)nc23)o1 (centres unmarked) [Example 16, 2-(3-chloro-4-fluorophenyl)-2-((4-(((5-methyl-1,3,4-oxadiazol-2-yl)amino)methyl)-1H-benzo[d]imidazol-2-yl)amino) propan-1-ol] | < 30000 nM
Cc1noc(NCc2cccc3[nH]c(NC(C)(CO)c4ccc(F)c(Cl)c4)nc23)n1 (centres unmarked) [Example 17, 2-(3-chloro-4-fluorophenyl)-2-[(4-{[(3-methyl-1,2,4-oxadiazol-5-yl)amino]methyl}-1H-1,3-benzodiazol-2-yl)amino]propan-1-ol] | < 30000 nM
CC(CO)(Nc1nc2c(Cn3ccoc3=N)cccc2[nH]1)c1cccc(C(F)(F)F)c1 (centres unmarked) [Example 18, 2-({4-[(2-imino-2,3-dihydro-1,3-oxazol-3-yl)methyl]-1H-1,3-benzodiazol-2-yl}amino)-2-[3-(trifluoromethyl)phenyl]propan-1-ol] | < 1000 nM
CC(CO)(Nc1nc2c(Cn3ccoc3=N)cccc2[nH]1)c1ccc(Cl)c(Cl)c1 (centres unmarked) [Example 19, 2-(3,4-dichlorophenyl)-2-({4-[(2-imino-2,3-dihydro-1,3-oxazol-3-yl)methyl]-1H-1,3-benzodiazol-2-yl}amino)propan-1-ol] | < 1000 nM

Next, values leading:

IC50 | SMILES
< 1000 nM | Cc1oc(=N)n(Cc2cccc3[nH]c(NC(C)(CO)c4ccc(F)c(Cl)c4)nc23)c1C (centres unmarked) [Example 20, 2-(3-chloro-4-fluorophenyl)-2-({4-[(2-imino-4,5-dimethyl-2,3-dihydro-1,3-oxazol-3-yl)methyl]-1H-1,3-benzodiazol-2-yl}amino)propan-1-ol]
< 30000 nM | Cn1nccc1NCc1cccc2[nH]c(NC(C)(CO)c3cccc(C(F)(F)F)c3)nc12 (centres unmarked) [Example 21, 2-((4-(((1-methyl-1H-pyrazol-5-yl)amino)methyl)-1H-benzo[d]imidazol-2-yl)amino)-2-(3-(trifluoromethyl)phenyl) propan-1-ol]
< 30000 nM | Cn1ccnc1NCc1cccc2[nH]c(NC(C)(CO)c3cccc(C(F)(F)F)c3)nc12 (centres unmarked) [Example 22, 2-((4-(((1-methyl-1H-imidazol-2-yl)amino)methyl)-1H-benzo[d]imidazol-2-yl)amino)-2-(3-(trifluoromethyl)phenyl)propan-1-ol]
< 1000 nM | Cc1coc(=N)n1Cc1cccc2[nH]c(NC(C)(CO)c3cccc(C(F)(F)F)c3)nc12 (centres unmarked) [Example 23, 2-({4-[(2-imino-4-methyl-2,3-dihydro-1,3-oxazol-3-yl)methyl]-1H-1,3-benzodiazol-2-yl}amino)-2-[3-(trifluoromethyl)phenyl]propan-1-ol]
< 1000 nM | Cc1cn(Cc2cccc3[nH]c(NC(C)(CO)c4cccc(C(F)(F)F)c4)nc23)c(=N)o1 (centres unmarked) [Example 24, 2-({4-[(2-imino-5-methyl-2,3-dihydro-1,3-oxazol-3-yl)methyl]-1H-1,3-benzodiazol-2-yl}amino)-2-[3-(trifluoromethyl)phenyl]propan-1-ol]
< 30000 nM | CCC(CO)(Nc1nc2c(Cn3ccoc3=N)cccc2[nH]1)c1cccc(C(F)(F)F)c1 (centres unmarked) [Example 25, 2-({4-[(2-imino-2,3-dihydro-1,3-oxazol-3-yl)methyl]-1H-1,3-benzodiazol-2-yl}amino)-2-[3-(trifluoromethyl)phenyl]butan-1-ol]
< 30000 nM | CC(CCO)(Nc1nc2c(Cn3ccoc3=N)cccc2[nH]1)c1cccc(C(F)(F)F)c1 (centres unmarked) [Example 26, 3-({4-[(2-imino-2,3-dihydro-1,3-oxazol-3-yl)methyl]-1H-1,3-benzodiazol-2-yl}amino)-3-[3-(trifluoromethyl)phenyl]butan-1-ol]
< 1000 nM | CC(CO)(Nc1nc2c(Cn3ccoc3=N)cccc2[nH]1)c1cccc(OC(F)(F)F)c1 (centres unmarked) [Example 27, 2-({4-[(2-imino-2,3-dihydro-1,3-oxazol-3-yl)methyl]-1H-1,3-benzodiazol-2-yl}amino)-2-[3-(trifluoromethoxy)phenyl]propan-1-ol]
< 30000 nM | Cc1oc(=N)n(Cc2cccc3[nH]c(NC(C)(CO)c4cccc(C(F)(F)F)c4)nc23)c1C (centres unmarked) [Example 28, 2-({4-[(2-imino-4,5-dimethyl-2,3-dihydro-1,3-oxazol-3-yl)methyl]-1H-1,3-benzodiazol-2-yl}amino)-2-[3-(trifluoromethyl)phenyl]-propan-1-ol]
< 1000 nM | Cc1coc(=N)n1Cc1cccc2[nH]c(NC(C)(CO)c3cccc(OC(F)(F)F)c3)nc12 (centres unmarked) [Example 29, 2-({4-[(2-imino-4-methyl-2,3-dihydro-1,3-oxazol-3-yl)methyl]-1H-1,3-benzodiazol-2-yl}amino)-2-[3-(trifluoromethoxy)phenyl]propan-1-ol]
< 1000 nM | Cc1cn(Cc2cccc3[nH]c(NC(C)(CO)c4cccc(OC(F)(F)F)c4)nc23)c(=N)o1 (centres unmarked) [Example 30, 2-({4-[(2-imino-5-methyl-2,3-dihydro-1,3-oxazol-3-yl)methyl]-1H-1,3-benzodiazol-2-yl}amino)-2-[3-(trifluoromethoxy)phenyl]-propan-1-ol]
